Measured values reported in PubChem BioAssay AID608 (Sanford-Burnham Center for Chemical Genomics, 2007).
Calls of active or inactive are those of the source. The rule behind the calls is not given here.

Biological target: Peptidyl-prolyl cis-trans isomerase FKBP1A (Homo sapiens) (UniProt P62942)
Test: small-molecule binding to FKBP12 – biophysical, NMR detection (AID 608)
Conditions: purified FKBP12

Chain of Peptidyl-prolyl cis-trans isomerase FKBP1A (Homo sapiens) (P62942 whole entry, looked up): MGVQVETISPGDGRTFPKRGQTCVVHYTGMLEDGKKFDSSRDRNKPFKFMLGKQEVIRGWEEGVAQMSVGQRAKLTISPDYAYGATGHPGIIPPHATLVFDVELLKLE

Cc1ccccc1C(=O)Nc1cccc(N)c1
Kd: > 4 mM (inactive)

COc1c2ccoc2cc2oc(C)cc(=O)c12
Kd: > 4 mM (inactive)

CCCOn1nnnc1-c1ccccc1
Kd: > 4 mM (inactive)

Cc1nnsc1C(=O)Nc1ccccn1
Kd: > 4 mM (inactive)

COC(=O)CSc1ncnc2c(C)csc12
Kd: > 4 mM (inactive)

O=C(O)C1CSC(c2cc3ccccc3nc2Cl)N1 (configuration not stated)
Kd: > 4 mM (inactive)

Cc1cc(N)cc(C)c1OCC(=O)N1CCOCC1
Kd: > 4 mM (inactive)

O=C(Nc1nnc(-c2cccnc2)o1)c1ccccc1F
Kd: > 4 mM (inactive)

O=c1c(O)c(-c2ccc(O)c(O)c2)oc2cc(O)ccc12
Kd: > 4 mM (inactive)

O=C(c1ccco1)N1CCN(c2ccc(Cl)cc2)CC1
Kd: > 4 mM (inactive)

CSc1n[nH]c(NCc2ccccc2)n1
Kd: > 4 mM (inactive)

Cn1c(=O)c2c([nH]c(=O)n2C)n(C)c1=O
Kd: > 4 mM (inactive)

Cc1nc2nc(-c3ccco3)nn2c(C)c1Cl
Kd: > 4 mM (inactive)

CCC(C)C(=O)OC1[C@@H]2CC3=C4CC(=O)O[C@@H](c5ccoc5)[C@]4(C)CCC3C(C)(C2=O)[C@@H](CC(=O)OC)C1(C)C (some centres not stated)
Kd: > 4 mM (inactive)

NC(=O)c1cc(N)ccc1N1CCCCC1
Kd: > 4 mM (inactive)

Nc1nc(CSc2ncn(-c3ccccc3)n2)cs1
Kd: > 4 mM (inactive)

COc1nc(C)ccc1-c1noc(-c2ccco2)n1
Kd: > 4 mM (inactive)

OC1CSc2ncnn2C1 (configuration not stated)
Kd: > 4 mM (inactive)

Cc1nc2ccccc2c(=O)n1N1C(=O)CCCC1=O
Kd: > 4 mM (inactive)

CN(C)Cc1c(N)cccc1O
Kd: > 4 mM (inactive)

O=C(Nc1ccon1)c1cccc(Cl)c1
Kd: > 4 mM (inactive)

Nc1cccc2nonc12
Kd: > 4 mM (inactive)

CNc1nc(SC)nc(N2CCOCC2)n1
Kd: > 4 mM (inactive)

O=C(O)c1ccc(-n2cccn2)cc1
Kd: > 4 mM (inactive)

O=c1cc(-c2cc(O)c(O)c(O)c2)oc2cc(O)cc(O)c12
Kd: > 4 mM (inactive)

Cc1c(C(=O)Nc2ccccn2)oc2ccccc12
Kd: > 4 mM (inactive)

COc1ccc(-c2cc(=O)c3c(O)c(OC)c(O[C@H]4O[C@H](CO[C@@H]5O[C@@H](C)[C@H](O)[C@@H](O)[C@H]5O)[C@@H](O)[C@H](O)[C@H]4O)cc3o2)cc1
Kd: > 4 mM (inactive)

CC(=O)N1CCc2ccccc2C1CC(=O)O (configuration not stated)
Kd: > 4 mM (inactive)

CC(=O)c1sc(NC(=O)C=C(C)C)nc1C
Kd: > 4 mM (inactive)

Cc1cc(C)n(CC(=O)NC2CCCCC2)n1
Kd: > 4 mM (inactive)

COc1cccc(/C=N/N=C2/NC(=O)CS2)c1
Kd: > 4 mM (inactive)

CC1(C)C=Cc2c(cc3occ(-c4ccc5c(c4)OCO5)c(=O)c3c2O)O1
Kd: > 4 mM (inactive)

CC(=O)Nn1cc2c(=O)n(C)c(=O)n(C)c2c1
Kd: > 4 mM (inactive)

COCC(=O)Nc1cccc(Br)c1
Kd: > 4 mM (inactive)

COc1ccc2cc1Oc1ccc(cc1)C[C@H]1c3c(cc4c(c3Oc3cc5c(cc3OC)CCN(C)[C@@H]5C2)OCO4)CCN1C
Kd: > 4 mM (inactive)

CCOC(=O)Cn1cnc2c1c(=O)[nH]c(=O)n2C
Kd: > 4 mM (inactive)

CC(=O)Nc1ccc(NC(=O)N2CCOCC2)cc1
Kd: > 4 mM (inactive)

NS(=O)(=O)c1ccc2c(c1)OCCO2
Kd: > 4 mM (inactive)

Cc1nn(C)c(C)c1NC(=S)NC1CCCC1
Kd: > 4 mM (inactive)

Cc1ccc(-n2nnnc2SCC(N)=O)c(C)c1
Kd: > 4 mM (inactive)

Cc1cc(C)n2c(SCc3c(C)noc3C)nnc2n1
Kd: > 4 mM (inactive)

Cc1cc(C(F)(F)F)n2nc(C(=O)O)c(Cl)c2n1
Kd: > 4 mM (inactive)

COc1cc(O)c(C)c(O)c1
Kd: > 4 mM (inactive)

COc1ccccc1-c1nc(-c2ccc(C)nc2OC)no1
Kd: > 4 mM (inactive)

COC(=O)c1cccc(C(F)(F)F)c1
Kd: > 4 mM (inactive)

Cc1nn(-c2ccccc2)nc1C(=O)O
Kd: > 4 mM (inactive)

Cc1nn(C)c2sc(C(=O)O)cc12
Kd: > 4 mM (inactive)

CC1=NNC(=O)C1CCc1ccncc1 (configuration not stated)
Kd: > 4 mM (inactive)

O=C1NC(=O)C(=Cc2ccccc2)C(=O)N1
Kd: > 4 mM (inactive)

OC1CC(c2ccccc2)NC2(CCCC2)C1 (configuration not stated)
Kd: > 4 mM (inactive)

CC1NC(C(=O)O)Cc2c1[nH]c1ccccc21 (configuration not stated)
Kd: > 4 mM (inactive)

CCOC(=O)CSc1nnc(C)c(=O)[nH]1
Kd: > 4 mM (inactive)

Cc1ccc(-c2c(C)n([O-])c(C)c(C)[n+]2=O)cc1
Kd: > 4 mM (inactive)

Cc1cc(C(=O)Nc2sc3c(c2C#N)CCC3)no1
Kd: > 4 mM (inactive)

COC(=O)Nc1c(C)n(C)n(-c2ccccc2)c1=O
Kd: > 4 mM (inactive)

O=C(O)CCC(=O)Nc1nnc(C(F)(F)F)s1
Kd: > 4 mM (inactive)

COc1ccc2c(c1)[nH]c1c(C)nccc12
Kd: > 4 mM (inactive)

O=C(O)Cn1cc(C(=O)C2CC2)c2ccccc21
Kd: > 4 mM (inactive)

NC(=S)CN1CCCC1=O
Kd: > 4 mM (inactive)

Cn1ncc(SCc2ccco2)c(Cl)c1=O
Kd: > 4 mM (inactive)

O=C(O)c1cccnc1-c1nc2ccccc2s1
Kd: > 4 mM (inactive)

CC(=O)Nc1ccncc1NC(C)=O
Kd: > 4 mM (inactive)

O=c1cnnc(N2CCCCC2)[nH]1
Kd: > 4 mM (inactive)

OCCOc1ccc(C2=NCCO2)cc1
Kd: > 4 mM (inactive)

Cc1cc(=O)c2c(O)c(C)c(O)cc2o1
Kd: > 4 mM (inactive)

CC(C)(C)NC(=O)CN1C(=O)c2ccccc2S1(=O)=O
Kd: > 4 mM (inactive)

Cc1occc1C(=O)Nc1ccc2c(c1)CCC2
Kd: > 4 mM (inactive)

O=C1NC(=Nc2ccccc2)S/C1=C/c1cccnc1
Kd: > 4 mM (inactive)

Clc1ccccc1OCc1nc(-c2ccncc2)no1
Kd: > 4 mM (inactive)

c1cncc(C2CCCCN2)c1 (configuration not stated)
Kd: > 4 mM (inactive)

Cc1csc(NC(=O)c2ccoc2C)n1
Kd: > 4 mM (inactive)

Cc1cc(NC(=O)c2cccc(N3C(=O)CCC3=O)c2)no1
Kd: > 4 mM (inactive)

CN1CCC(NC(=S)NC2CC2)CC1
Kd: > 4 mM (inactive)

Cc1c(C)n2c(SCC(N)=O)nnc2[nH]c1=O
Kd: > 4 mM (inactive)

CC(C)(C)C(=O)Nc1nnc(SCC(N)=O)s1
Kd: > 4 mM (inactive)

O=S1(=O)C=CC(Nc2ccccc2)C1 (configuration not stated)
Kd: > 4 mM (inactive)

O=C(O)c1ccc2nccnc2c1
Kd: > 4 mM (inactive)

c1cnc(N2CCNCC2)nc1
Kd: > 4 mM (inactive)

CC(C)n1c(Nn2cnnc2)nc2ccccc21
Kd: > 4 mM (inactive)

COc1cc(C(=S)N2CCCC2)cc(Cl)c1O
Kd: > 4 mM (inactive)

O=C(Nc1ccccc1Cl)c1cnccn1
Kd: > 4 mM (inactive)

COc1ccc2c(c1)OC/C(=C/c1ccc(OC)c(OC)c1)C2=O
Kd: > 4 mM (inactive)

CN(C)C(=O)Nc1ccc2c(c1)nnn2C
Kd: > 4 mM (inactive)

CN1C2C[C@H](OC(=O)[C@H](CO)c3ccccc3)C[C@H]1[C@@H](O)C2
Kd: > 4 mM (inactive)

CCC(=O)NC(=S)Nc1ccc(O)cc1
Kd: > 4 mM (inactive)

COc1ccc(NC(=O)CSc2nccc(=O)[nH]2)cc1
Kd: > 4 mM (inactive)

COC(=O)C1[C@H]2C[C@H]3c4[nH]c5ccccc5c4CCN3C[C@@H]2CC[C@@H]1O (some centres not stated)
Kd: > 4 mM (inactive)
